Laboratory results as given in US10792289B2 (Horizon Orphan LLC, priority 2009, dated 2020).
Read-outs that look alike come from different tables or passages of the source.

Tested on: P. aeruginosa isolates
Experiment: Phase 2 study: MIC of P. aeruginosa isolates to levofloxacin
Type: cell-based
Conditions: Pseudomonas aeruginosa
Description: Efficacy was evaluated by microbiologic assessment of sputum samples, time to need for anti-pseudomonal antimicrobials, the Cystic Fibrosis Questionaire-Revised (CFQ-R), and pulmonary function tests. […] Pair-wise comparisons between all the treatment arms were conducted as secondary analyses.

C[C@H]1COc2c(N3CCN(C)CC3)c(F)cc3c(=O)c(C(=O)O)cn1c23 [Levofloxacin, levofloxacin]
MIC90 (672 h, MITT, combined 240 mg QD and BID, Day 28, read-out: Highest MIC, MIC90): 32 µg/mL | MIC50 (672 h, MITT, combined 240 mg QD and BID, Day 28, read-out: MIC50 (all organisms)): 4 µg/mL | MIC90 (672 h, MITT, combined 240 mg QD and BID, Day 28, read-out: MIC90 (all organisms)): 16 µg/mL | MIC50 (672 h, Table 14, EE, 120 mg QD, Day 28, read-out: MIC50 (all organisms)): 8 µg/mL | MIC90 (672 h, Table 14, EE, 120 mg QD, Day 28, read-out: MIC90 (all organisms)): 32 µg/mL | MIC50 (672 h, Table 14, EE, 240 mg BID, Day 28, read-out: MIC50 (all organisms)): 8 µg/mL | MIC90 (672 h, Table 14, EE, 240 mg BID, Day 28, read-out: MIC90 (all organisms)): 32 µg/mL | MIC50 (672 h, Table 14, EE, 240 mg QD, Day 28, read-out: MIC50 (all organisms)): 8 µg/mL | MIC90 (672 h, Table 14, EE, 240 mg QD, Day 28, read-out: MIC90 (all organisms)): 16 µg/mL | MIC50 (672 h, Table 14, EE, combined 240 mg QD and BID, Day 28, read-out: MIC50 (all organisms)): 8 µg/mL | MIC90 (672 h, Table 14, EE, combined 240 mg QD and BID, Day 28, read-out: MIC90 (all organisms)): 32 µg/mL | MIC (672 h, read-out: Highest MIC to levofloxacin, mean (SD), MITT, 120 mg QD, Day 28): 12.7 µg/mL | MIC (672 h, read-out: Highest MIC to levofloxacin, mean (SD), MITT, 240 mg BID, Day 28): 17.9 µg/mL | MIC (672 h, read-out: Highest MIC to levofloxacin, mean (SD), MITT, 240 mg QD, Day 28): 9.17 µg/mL | MIC (672 h, read-out: Highest MIC to levofloxacin, mean (SD), MITT, combined 240 mg QD and BID, Day 28): 13.5 µg/mL | MIC (672 h, read-out: MIC to levofloxacin (all organisms), mean (SD), EE, 120 mg QD, Day 28): 8.9 µg/mL | MIC (672 h, read-out: MIC to levofloxacin (all organisms), mean (SD), EE, 240 mg BID, Day 28): 10.1 µg/mL | MIC (672 h, read-out: MIC to levofloxacin (all organisms), mean (SD), EE, 240 mg QD, Day 28): 6 µg/mL | MIC (672 h, read-out: MIC to levofloxacin (all organisms), mean (SD), EE, combined 240 mg QD and BID, Day 28): 8 µg/mL | MIC (672 h, read-out: MIC to levofloxacin (all organisms), mean (SD), MITT, 120 mg QD, Day 28): 8.8 µg/mL | MIC (672 h, read-out: MIC to levofloxacin (all organisms), mean (SD), MITT, 240 mg BID, Day 28): 9.9 µg/mL | MIC (672 h, read-out: MIC to levofloxacin (all organisms), mean (SD), MITT, 240 mg QD, Day 28): 5.9 µg/mL | MIC (672 h, read-out: MIC to levofloxacin (all organisms), mean (SD), MITT, combined 240 mg QD and BID, Day 28): 7.9 µg/mL | MIC (672 h, read-out: MIC to levofloxacin (all organisms), mean (SD), Table 14, EE, 120 mg QD, Day 28): 12.9 µg/mL | MIC (672 h, read-out: MIC to levofloxacin (all organisms), mean (SD), Table 14, EE, 240 mg BID, Day 28): 18 µg/mL | MIC (672 h, read-out: MIC to levofloxacin (all organisms), mean (SD), Table 14, EE, 240 mg QD, Day 28): 9.42 µg/mL | MIC (672 h, read-out: MIC to levofloxacin (all organisms), mean (SD), Table 14, EE, combined 240 mg QD and BID, Day 28): 13.6 µg/mL | MIC50 (EE and MITT, 120 mg QD, baseline, read-out: MIC50 for P. aeruginosa isolates): 8 µg/mL | MIC90 (EE and MITT, 120 mg QD, baseline, read-out: MIC90 for P. aeruginosa isolates): 32 µg/mL | MIC50 (EE and MITT, 240 mg BID, baseline, read-out: MIC50 for P. aeruginosa isolates): 6 µg/mL | MIC90 (EE and MITT, 240 mg BID, baseline, read-out: MIC90 for P. aeruginosa isolates): 32 µg/mL | MIC50 (EE and MITT, 240 mg QD, baseline, read-out: MIC50 for P. aeruginosa isolates): 4 µg/mL | MIC90 (EE and MITT, 240 mg QD, baseline, read-out: MIC90 for P. aeruginosa isolates): 32 µg/mL | MIC (all patients, baseline (n=592 isolates), read-out: Median baseline MIC of all isolates): 4 µg/mL | MIC90 (read-out: Baseline MIC90 of all isolates): 16 µg/mL | MIC (read-out: Highest MIC to levofloxacin, mean (SD), MITT, 120 mg QD, Day 1): 14.3 µg/mL | MIC (read-out: Highest MIC to levofloxacin, mean (SD), MITT, 240 mg BID, Day 1): 11.4 µg/mL | MIC (read-out: Highest MIC to levofloxacin, mean (SD), MITT, 240 mg QD, Day 1): 9.06 µg/mL | MIC (read-out: Highest MIC to levofloxacin, mean (SD), MITT, combined 240 mg QD and BID, Day 1): 10.2 µg/mL | MIC (read-out: MIC to levofloxacin (all organisms), mean (SD), EE, 120 mg QD, Day 1): 11.5 µg/mL | MIC (read-out: MIC to levofloxacin (all organisms), mean (SD), EE, 240 mg BID, Day 1): 6.8 µg/mL | MIC (read-out: MIC to levofloxacin (all organisms), mean (SD), EE, 240 mg QD, Day 1): 6.3 µg/mL | MIC (read-out: MIC to levofloxacin (all organisms), mean (SD), EE, combined 240 mg QD and BID, Day 1): 6.5 µg/mL | MIC (read-out: MIC to levofloxacin (all organisms), mean (SD), MITT, 120 mg QD, Day 1): 11 µg/mL | MIC (read-out: MIC to levofloxacin (all organisms), mean (SD), MITT, 240 mg BID, Day 1): 6.8 µg/mL | MIC (read-out: MIC to levofloxacin (all organisms), mean (SD), MITT, 240 mg QD, Day 1): 6.1 µg/mL | MIC (read-out: MIC to levofloxacin (all organisms), mean (SD), MITT, combined 240 mg QD and BID, Day 1): 6.4 µg/mL | MIC (read-out: MIC to levofloxacin (all organisms), mean (SD), Table 14, EE, 120 mg QD, Day 1): 15 µg/mL | MIC (read-out: MIC to levofloxacin (all organisms), mean (SD), Table 14, EE, 240 mg BID, Day 1): 11.6 µg/mL | MIC (read-out: MIC to levofloxacin (all organisms), mean (SD), Table 14, EE, 240 mg QD, Day 1): 9.35 µg/mL | MIC (read-out: MIC to levofloxacin (all organisms), mean (SD), Table 14, EE, combined 240 mg QD and BID, Day 1): 10.5 µg/mL
